For 20 compounds, EC50 results are on record in patent publication US20220056019A1, “FARNESOID X RECEPTOR AGONISTS AND USES THEREOF” (Metacrine, Inc., priority 2018, published 2022).

As a reminder, the EC50 is the midpoint of the concentration-response curve. Low readings indicate an effect from little substance, high ones a need for much substance.

This test deals with T1, hFXR (Homo sapiens, UniProt Q96RI1).
T1 construct: expressed in transfected cells; host or cells: CV-1 cells
T1 sequence (Q96RI1 1-486): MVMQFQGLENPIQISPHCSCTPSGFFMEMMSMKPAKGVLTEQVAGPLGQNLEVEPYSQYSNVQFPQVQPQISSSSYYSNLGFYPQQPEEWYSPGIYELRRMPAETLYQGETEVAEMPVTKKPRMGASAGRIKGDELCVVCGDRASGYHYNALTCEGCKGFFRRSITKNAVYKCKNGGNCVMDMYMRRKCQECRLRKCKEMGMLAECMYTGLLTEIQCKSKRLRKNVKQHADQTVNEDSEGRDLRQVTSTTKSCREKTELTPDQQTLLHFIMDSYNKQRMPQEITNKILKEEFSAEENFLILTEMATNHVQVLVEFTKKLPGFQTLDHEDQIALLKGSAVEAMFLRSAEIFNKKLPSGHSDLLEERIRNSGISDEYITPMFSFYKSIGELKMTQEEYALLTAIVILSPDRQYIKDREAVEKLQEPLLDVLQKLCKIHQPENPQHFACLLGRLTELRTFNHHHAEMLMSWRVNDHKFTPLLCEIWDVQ
T1 sequence (P19793 1-462 partner): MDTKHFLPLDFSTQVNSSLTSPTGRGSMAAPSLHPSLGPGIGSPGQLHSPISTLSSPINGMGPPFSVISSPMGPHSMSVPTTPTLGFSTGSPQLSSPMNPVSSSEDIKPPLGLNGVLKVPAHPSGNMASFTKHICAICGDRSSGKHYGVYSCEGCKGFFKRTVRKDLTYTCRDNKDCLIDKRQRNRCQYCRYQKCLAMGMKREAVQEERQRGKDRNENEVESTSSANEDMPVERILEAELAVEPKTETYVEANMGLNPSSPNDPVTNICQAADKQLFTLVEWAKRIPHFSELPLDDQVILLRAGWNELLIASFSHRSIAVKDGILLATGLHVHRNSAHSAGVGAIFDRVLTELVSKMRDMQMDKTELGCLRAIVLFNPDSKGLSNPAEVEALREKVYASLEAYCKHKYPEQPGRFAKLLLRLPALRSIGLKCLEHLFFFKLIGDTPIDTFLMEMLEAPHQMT
The experiment in a line: In Vitro FXR Assay (TK): TK-ECRE-luc reporter in transfected CV-1 cells. Format: cell-based. Conditions: 18 hrs incubation, luminescence. Summed up:
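CV-1 cells transiently cotransfected with hFXR, hRXR, TK-ECRE-luc reporter and pCMX-YFP plasmids in charcoal-stripped serum medium. Serially diluted compounds added for 18 h at 37° C., then cells lysed and luciferase luminescence measured.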
Compound `COc1ccc(C23CCC(CN(c4cccc(-c5cnn(C(C)C)c5)c4)C(=O)[C@H]4CC[C@H](OC(=O)N5CC(O)C5)CC4)(CC2)CC3)cc1C` [Compound 25.02, 4-((3-(1-Isopropyl-1H-pyrazol-4-yl)phenyl)((4-(4-methoxy-3-methylphenyl)bicyclo[2.2.2]octan-1-yl)methyl)carbamoyl)cyclohexyl trans-3-hydroxyazetidine-1-carboxylate] gave an EC50 not above 0.05 µM. In the case of `COc1ccc(C23CCC(CN(c4cccc(-c5nnc(C6CC6)o5)c4)C(=O)[C@H]4CC[C@H](OC(=O)N5CC(O)C5)CC4)(CC2)CC3)cc1C` [Compound 4.32, 4-((3-(5-Cyclopropyl-1,3,4-oxadiazol-2-yl)phenyl)((4-(4-methoxy-3-methylphenyl)bicyclo [2.2.2]octan-1-yl)methyl)carbamoyl)cyclohexyl trans-3-hydroxyazetidine-1-carboxylate] it was not above 0.05 µM; in that of `COc1ccc([C@H]2CC[C@H](CN(c3cc(-c4cnn(C(C)C)c4)ccn3)C(=O)[C@H]3CC[C@H](OC(=O)NC(C)C)CC3)CC2)cc1C` [Compound 2.17, trans-4-((4-(1-Isopropyl-1H-pyrazol-4-yl)pyridin-2-yl)(((trans)-4-(4-methoxy-3-methylphenyl)cyclohexyl)methyl)carbamoyl) cyclohexyl isopropylcarbamate], not above 0.05 µM. Compound `COc1ccc([C@H]2CC[C@H](CN(c3cc(-c4cnc(C5CC5)s4)ccn3)C(=O)[C@H]3CC[C@H](OC(=O)NC(C)C)CC3)CC2)cc1C` [Compound 2.45, trans-4-((4-(2-Cyclopropylthiazol-5-yl)pyridin-2-yl)(((trans)-4-(4-methoxy-3-methylphenyl)cyclohexyl)methyl)carbamoyl)cyclohexyl isopropylcarbamate] yielded an EC50 not above 0.05 µM. `COc1ccc([C@H]2CC[C@H](CN(c3cccc(-c4coc(C5CC5)n4)c3)C(=O)[C@H]3CC[C@H](CO)CC3)CC2)nc1C` [Compound 20, trans-N-(3-(2-Cyclopropyloxazol-4-yl)phenyl)-4-(hydroxymethyl)-N-((trans-4-(5-methoxy-6-methylpyridin-2-yl)cyclohexyl)methyl)cyclohexanecar-boxamide] registered an EC50 not above 0.05 µM. The same measure for `COc1ccc(C23CCC(CN(c4cc(-c5cnn(C(C)C)c5)ccn4)C(=O)[C@H]4CC[C@H](OC(=O)N5CC(CS(C)(=O)=O)C5)CC4)(CC2)CC3)cc1C` [Compound 4.44, 4-((4-(1-Isopropyl-1H-pyrazol-4-yl)pyridin-2-yl) ((4-(4-methoxy-3-methylphenyl)bicyclo [2.2.2]octan-1-yl)methyl)carbamoyl)cyclohexyl trans-3-((methylsulfonyl)methyl)azetidine-1-carboxylate]: not above 0.05 µM. The same measure for `COc1ccc([C@H]2CC[C@H](CN(c3cccc(-c4cnn(C(C)C)c4)c3)C(=O)[C@H]3CC[C@H](NC(=O)C4CCOCC4)CC3)CC2)cc1C` [Compound 10.02, N-(trans-4-((3-(1-Isopropyl-1H-pyrazol-4-yl)phenyl)((trans-4-(4-methoxy-3-methylphenyl)cyclohexyl)methyl)carbamoyl)cyclohexyl)tetrahydro-2H-pyran-4-carboxamide]: not above 0.05 µM; for `COc1ccc([C@H]2CC[C@H](CN(c3cccc(-c4cnn(C(C)C)c4)c3)C(=O)[C@H]3CC[C@H](OC(=O)NCC(C)(C)O)CC3)CC2)cc1C` [Compound 5.12, trans-4-((3-(1-Isopropyl-1H-pyrazol-4-yl)phenyl)((trans-4-(4-methoxy-3-methylphenyl)cyclohexyl)methyl)carbamoyl)cyclohexyl (2-hydroxy-2-methylpropyl)carbamate]: not above 0.05 µM. In turn, `COc1ccc([C@H]2CC[C@H](CN(c3cc(-c4cnn(C(C)C)c4)ccn3)C(=O)[C@H]3CC[C@H](OC(=O)N4CCNCC4)CC3)CC2)cc1C` [Compound 2.15, trans-4-((4-(1-Isopropyl-1H-pyrazol-4-yl)pyridin-2-yl) ((trans-4-(4-methoxy-3-methylphenyl)cyclohexyl)methyl)carbamoyl) cyclohexyl piperazine-1-carboxylate] gave an EC50 of 0.05 to 1 µM. In the case of `COc1ccc(C23CCC(CN(c4cc(-c5cnn(C(C)C)c5)ccn4)C(=O)[C@H]4CC[C@H](OC(=O)NC5COC5)CC4)(CC2)CC3)cc1C` [Compound 4.13, 4-((4-(1-Isopropyl-1H-pyrazol-4-yl)pyridin-2-yl)((4-(4-methoxy-3-methylphenyl)bicyclo [2.2.2]octan-1-yl)methyl)carbamoyl)cyclohexyl trans-oxetan-3-ylcarbamate] it was not above 0.05 µM.

For `COc1ccc(C23CCC(CN(c4cc(-c5cnn(C6CC[S+]([O-])CC6)c5)ccn4)C(=O)[C@H]4CC[C@H](OC(=O)N5CC(O)C5)CC4)(CC2)CC3)cc1C` (stereo partly drawn) [Compound 26.22, 4-(((4-(4-Methoxy-3-methylphenyl)bicyclo[2.2.2]octan-1-yl)methyl)(4-(1-(1-oxidotetrahydro-2H-thiopyran-4-yl)-1H-pyrazol-4-yl)pyridin-2-yl)carbamoyl)cyclohexyl trans-3-hydroxyazetidine-1-carboxylate], the EC50 was 1 to 10 µM. The compound `COc1ccc([C@H]2CC[C@H](CN(c3cccc(-c4cnn(C(C)C)c4)c3)C(=O)[C@H]3CC[C@H](NC(=O)OC(C)C)CC3)CC2)cc1C` [Compound 6.02, Isopropyl (trans-4-((3-(1-isopropyl-1H-pyrazol-4-yl)phenyl)((trans-4-(4-methoxy-3-methylphenyl)cyclohexyl)meth-yl)carbamoyl)cyclohexyl)carbamate] registered an EC50 not above 0.05 µM. In the case of `COc1ccc(C23CCC(CN(c4cc(-n5cnc(C6CC6)n5)ccn4)C(=O)[C@H]4CC[C@H](OC(=O)N5CC(O)C5)CC4)(CC2)CC3)cc1C` [Compound 4.17, 4-((4-(3-Cyclopropyl-1H-t1,2,4-riazol-1-yl)pyridin-2-yl)((4-(4-methoxy-3-methylphenyl)bicyclo [2.2.2]octan-1-yl)methyl)carbamoyl)cyclohexyl 3-hydroxyazetidine-trans-1-carboxylate] it was not above 0.05 µM; in that of `COc1ccc(C23CCC(CN(c4cc(-c5cnn(C6CCC6)c5)ncn4)C(=O)[C@H]4CC[C@H](OC(=O)N5CC(CO)C5)CC4)(CC2)CC3)cc1C` [Compound 23.24], not above 0.05 µM; in that of `COc1ccc([C@H]2CC[C@H](CN(c3cccc(-c4cnn(C(C)C)c4)c3)C(=O)[C@H]3CC[C@H](NC(=O)COCCCO)CC3)CC2)cc1C` [Compound 13, trans-4-(2-(3-Hydroxypropoxy)acetamido)-N-(3-(1-isopropyl-1H-pyrazol-4-yl)phenyl)-N-((trans-4-(4-methoxy-3-methylphenyl)cyclohexyl)methyl)cyclohexanecarboxamide], not above 0.05 µM.

`COc1ccc(C23CCC(CN(c4ccc(F)c(-c5cnn(C(C)C)c5)c4)C(=O)[C@H]4CC[C@H](OC(=O)N5CC(CO)C5)CC4)(CC2)CC3)cc1C` [Compound 25.09, 4-((4-Fluoro-3-(1-isopropyl-1H-pyrazol-4-yl)phenyl)((4-(4-methoxy-3-methylphenyl)bicyclo[2.2.2]octan-1-yl)methyl)carbamoyl)cyclohexyl trans-3-(hydroxymethyl)azetidine-1-carboxylate] registered an EC50 not above 0.05 µM.

`COc1c(F)cc(C23CCC(CN(c4cc(-c5cnn(C(C)C)c5)ccn4)C(=O)[C@H]4CC[C@H](OC(=O)N5CC(O)C5)CC4)(CC2)CC3)cc1F` [Compound 26.06, 4-(((4-(3,5-Difluoro-4-methoxyphenyl)bicyclo[2.2.2]octan-1-yl)methyl)(4-(1-isopropyl-1H-pyrazol-4-yl)pyridin-2-yl)carbamoyl)cyclohexyl trans-3-hydroxyazetidine-1-carboxylate] returned an EC50 not above 0.05 µM.

For the compound `CC(C)c1ccc(C23CCC(CN(c4cncc(-c5cnn(C(C)C)c5)n4)C(=O)[C@H]4CC[C@H](OC(=O)N5CC(O)C5)CC4)(CC2)CC3)cc1` [Compound 4.63, 4-((6-(1-Isopropyl-1H-pyrazol-4-yl)pyrazin-2-yl) ((4-(4-isopropylphenyl)bicyclo[2.2.2]octan-1-yl)methyl)carbamoyl)(trans-cyclohexyl) 3-hydroxyazetidine-1-carboxylate], the EC50 was not above 0.05 µM.

Consider `COc1ccc(C23CCC(CN(c4cc(-c5cnn(C(C)C)c5)ccn4)C(=O)[C@H]4CC[C@H](NC(=O)C(C)(C)O)CC4)(CC2)CC3)cc1C` [Compound 9.03], for which the EC50 was not above 0.05 µM. The same measure for `COc1ccc([C@H]2CC[C@H](CN(c3cccc(-c4coc(C5CC5)n4)c3)C(=O)[C@H]3CC[C@H](C(=O)OC)CC3)CC2)nc1C` [Compound 18, trans-Methyl 4-((3-(2-cyclopropyloxazol-4-yl)phenyl)((trans-4-(5-methoxy-6-methylpyridin-2-yl)cyclohexyl)methyl)carbamoyl)cyclo-hexanecarboxylate]: not above 0.05 µM.
